ChEMBL document CHEMBL3217750, “Small-molecule inhibitors of dimeric transcription factors: Antagonism of proteinprotein and proteinDNA interactions” (Medchemcomm, 2012)
Bridge positions count the residues as written; N and C are the ends. Peptide text beside a SMILES is read from it.

Columns and labels:
Transcription factor Jun = Transcription factor Jun (Homo sapiens, UniProt P05412); assay: Inhibition of AP-1 complex (unknown origin)
c-Myc/Max [1] = target: T1, c-Myc/Max (Homo sapiens, UniProt P01106+P61244); assay: Inhibition of c-Myc/Max (unknown origin); type: protein-complex assay
T1 sequence (P01106 whole entry): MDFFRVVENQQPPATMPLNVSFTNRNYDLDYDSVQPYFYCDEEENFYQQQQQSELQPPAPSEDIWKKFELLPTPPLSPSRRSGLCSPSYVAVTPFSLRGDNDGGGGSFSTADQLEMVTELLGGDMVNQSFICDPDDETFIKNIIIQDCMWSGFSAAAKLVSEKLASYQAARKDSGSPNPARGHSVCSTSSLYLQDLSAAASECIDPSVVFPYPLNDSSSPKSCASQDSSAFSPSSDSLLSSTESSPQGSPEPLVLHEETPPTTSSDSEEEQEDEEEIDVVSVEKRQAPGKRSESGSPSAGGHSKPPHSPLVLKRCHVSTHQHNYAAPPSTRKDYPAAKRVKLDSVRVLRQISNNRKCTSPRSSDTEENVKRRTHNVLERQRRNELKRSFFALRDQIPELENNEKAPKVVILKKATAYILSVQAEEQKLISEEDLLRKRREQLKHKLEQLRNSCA
T1 sequence (P61244 whole entry): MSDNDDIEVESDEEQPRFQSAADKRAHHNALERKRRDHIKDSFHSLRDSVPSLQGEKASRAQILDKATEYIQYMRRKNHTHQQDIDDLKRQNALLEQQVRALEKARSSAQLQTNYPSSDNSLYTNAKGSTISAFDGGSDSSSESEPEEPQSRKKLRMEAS

Homo sapiens [2] = species on record: Homo sapiens; assay: Selectivity ratio of IC50 for c-Myc/Max (unknown origin) to IC50 for AP-1 complex (unknown origin)
Transcription factor AP1 = Transcription factor AP1 (Homo sapiens, UniProt P01100+P05412); assay: Inhibition of c-FOS/AP1 (unknown origin); type: protein-complex assay
Sequence of Transcription factor AP1 (P05412 whole entry): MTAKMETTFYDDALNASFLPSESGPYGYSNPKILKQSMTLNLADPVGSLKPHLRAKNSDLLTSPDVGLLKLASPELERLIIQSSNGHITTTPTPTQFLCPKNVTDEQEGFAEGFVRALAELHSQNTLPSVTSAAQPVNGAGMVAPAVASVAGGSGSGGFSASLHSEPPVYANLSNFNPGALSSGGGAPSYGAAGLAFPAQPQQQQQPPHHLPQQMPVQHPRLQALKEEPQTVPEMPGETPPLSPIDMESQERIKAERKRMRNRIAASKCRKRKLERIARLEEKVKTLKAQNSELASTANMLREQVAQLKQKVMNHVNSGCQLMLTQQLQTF
Sequence of Transcription factor AP1 (P01100 whole entry): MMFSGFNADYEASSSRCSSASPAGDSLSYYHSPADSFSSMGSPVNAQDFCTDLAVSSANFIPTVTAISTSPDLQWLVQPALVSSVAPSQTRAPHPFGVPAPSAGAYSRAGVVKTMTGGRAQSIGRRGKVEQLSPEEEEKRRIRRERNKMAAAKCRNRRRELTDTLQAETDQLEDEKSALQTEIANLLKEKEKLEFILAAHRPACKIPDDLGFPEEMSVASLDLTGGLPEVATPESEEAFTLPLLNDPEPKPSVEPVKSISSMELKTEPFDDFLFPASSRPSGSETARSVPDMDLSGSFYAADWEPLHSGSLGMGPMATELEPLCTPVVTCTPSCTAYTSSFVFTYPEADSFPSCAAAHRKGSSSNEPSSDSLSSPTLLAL

c-Myc/Max [3] = target: T1, c-Myc/Max; assay: Inhibition of c-Myc/Max (unknown origin) DNA-binding activity preincubated for 1 hr followed by DNA addition measured after 15 mins by electrophoretic mobility shift assay; type: protein-complex assay
[4] = target: T2, Lymphoid enhancer-binding factor 1 (Homo sapiens, UniProt Q9UJU2); assay: Inhibition of LEF-1-mediated gene transcription in HEK293 cells after 48 hrs by luciferase reporter gene assay; type: cell-based
T2 sequence (Q9UJU2 whole entry): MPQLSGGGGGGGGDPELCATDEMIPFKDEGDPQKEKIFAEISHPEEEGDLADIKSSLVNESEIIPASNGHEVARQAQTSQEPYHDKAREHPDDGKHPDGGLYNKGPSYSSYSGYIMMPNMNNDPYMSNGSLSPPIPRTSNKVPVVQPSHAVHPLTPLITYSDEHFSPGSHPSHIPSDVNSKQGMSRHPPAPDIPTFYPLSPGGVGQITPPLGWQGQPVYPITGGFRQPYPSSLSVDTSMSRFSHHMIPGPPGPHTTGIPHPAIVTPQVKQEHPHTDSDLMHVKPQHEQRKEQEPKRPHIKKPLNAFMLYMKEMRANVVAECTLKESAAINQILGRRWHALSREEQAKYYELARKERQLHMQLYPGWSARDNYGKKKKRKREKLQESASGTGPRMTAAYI

[5] = target: T2, Lymphoid enhancer-binding factor 1; assay: Inhibition of LEF-1 (unknown origin) expressed in CEF assessed as inhibition of beta catenin interaction by electrophoretic mobility shift assay
Homo sapiens [6] = species on record: Homo sapiens; assay: Ratio of curcumin IC50 to compound IC50 for AP-1 complex (unknown origin)
c-Myc/Max [7] = target: T1, c-Myc/Max; assay: Inhibition of c-Myc/Max (unknown origin) DNA-binding activity; type: protein-complex assay
Protein max = Protein max (Homo sapiens, UniProt P61244); assay: Inhibition of dimerized Max (unknown origin) DNA-binding activity
Sequence of Protein max (P61244 whole entry): as the sequence (P61244 whole entry) above

Homo sapiens [8] = species on record: Homo sapiens; assay: Selectivity ratio of IC50 for dimerized Max (unknown origin) to IC50 for c-Myc/Max (unknown origin)
HL-60 = assay: Antiproliferative activity against human HL60 cells; type: functional, cell-based
[9] = target: T3, Myc proto-oncogene protein (Homo sapiens, UniProt P01106); assay: Binding affinity to c-MYC (353 to 437) (unknown origin) by fluorescence polarization assay
T3 sequence (P01106 whole entry): as the sequence (P01106 whole entry) above

[10] = target: T3, Myc proto-oncogene protein; assay: Inhibition of c-MYC in human HL60 cells by chemiluminescence assay; type: cell-based, HL-60

Sequence of Transcription factor Jun (P05412 whole entry): as the sequence (P05412 whole entry) above

**Q.** With `CC1(C)CC[C@]2(C(=O)O)CC[C@]3(C)C(=CC[C@@H]4[C@@]5(C)CC[C@H](O[C@@H]6O[C@H](C(=O)O)[C@@H](O)[C@H](O[C@@H]7OC[C@H](O)[C@H](O)[C@H]7O)[C@H]6O)C(C)(C)[C@@H]5CC[C@]43C)[C@@H]2C1` as the compound, how does the IC50 (Transcription factor Jun) read?
**A.** The IC50 was 30 µM.

**Q.** What about the IC50 (c-Myc/Max [1]) of the same compound?
**A.** Its IC50 is 4000 µM.

**Q.** And the Ratio IC50 (Homo sapiens [2])?
**A.** The Ratio IC50 was greater than 100.

**Q.** `CC(=O)N[C@H]1CSSC[C@@H](C(N)=O)NC(=O)CNC(=O)[C@H](CC(=O)O)NC(=O)[C@H](C)NC(=O)[C@H](CC(C)C)NC(=O)[C@H](CC(=O)O)NC(=O)[C@H](CC(C)C)NC(=O)[C@H](CCC(N)=O)NC(=O)CNC1=O` (Ac-CGQLDLADGC-NH2; disulfide 1-10) was tested. Which IC50 (Transcription factor AP1) did it give?
**A.** Its IC50 is 8 µM.

**Q.** Which IC50 (c-Myc/Max [3]) does the source give for `CNC(=O)c1cc2c(cc1C(=O)NC[C@H](NS(=O)(=O)c1c(Cl)sc(Cl)c1Br)C(=O)OC(C)(C)C)CN(C(=O)CCC1CCN(C(=O)OC(C)(C)C)CC1)C2` here?
**A.** The IC50 was 50 µM.

**Q.** Which IC50 [4] does the source give for `COC(=O)c1cc2cc(NC(=O)c3cc4cc(NC(=O)c5cc(NC(=O)OC(C)(C)C)cs5)ccc4[nH]3)ccc2[nH]1` here?
**A.** Its IC50 is 6.2 µM.

**Q.** And the IC50 [5]?
**A.** The IC50 was 31 µM.

**Q.** How did the IC50 (Transcription factor Jun) turn out when `COc1cc(/C=C/C(=O)/C=C(O)/C=C/c2cc(OC)c(O)c([N+](=O)[O-])c2)cc([N+](=O)[O-])c1O` was run?
**A.** The IC50 was 5.4 µM.

**Q.** What about the Ratio IC50 (Homo sapiens [6]) of the same compound?
**A.** Its Ratio IC50 is 90.

**Q.** Which results are given for `CCOC(=O)c1cnn(-c2ccccc2)c1NC(=O)c1cc2nc(-c3ccco3)cc(C(F)(F)Cl)n2n1`?
**A.** IC50 (c-Myc/Max [7]): 40 µM; IC50 (Protein max): 88 µM; Ratio IC50 (Homo sapiens [8]): > 2

**Q.** How did the IC50 (HL-60) turn out when `CCc1ccc(/C=C2\SC(=S)NC2=O)cc1` was run?
**A.** Its IC50 is 49 µM.

**Q.** What about the Activity [9] of the same compound?
**A.** Its Activity is 5.3 µM.

**Q.** Which IC50 (Transcription factor AP1) does the source give for `O=C(O)CCc1cc(C(=O)c2ccc(OC3CCCC3)cc2O)ccc1OCc1ccc2c(O)noc2c1` here?
**A.** Its IC50 is 200 µM.

**Q.** `O=[N+]([O-])c1ccc(Nc2ccccc2-c2ccccc2)c2nonc12` was tested. Which Activity [9] did it give?
**A.** Its Activity is 2.8 µM.

**Q.** What does the source list for `COC(=O)c1cnc2ccc(NC(=O)c3ccc4c(c3)c3cc(NC(=O)c5cc6cc(NC(=O)CCCN(C)C)ccc6o5)ccc3n4C)cc2c1`?
**A.** IC50 [4]: 0.15 µM; IC50 [5]: 115 µM

**Q.** What does the source list for `COc1ccc(CNC(=O)c2cc3nc(-c4cccs4)cc(C(F)(F)F)n3n2)cc1`?
**A.** IC50 (c-Myc/Max [7]): 30 µM; IC50 (Protein max): 72 µM

**Q.** How did the IC50 [10] turn out when `CC(C)c1ccc(/C=C2\SC(=S)N(CN3CCCCC3)C2=O)cc1` was run?
**A.** The IC50 was 29 µM.
